Measured values as given in patent US6020345A, “Pyridin-2-yl-methylamine derivatives, method of preparing and application as medicine” (Pierre Fabre Medicament, priority 1996, dated 2000).
Read-outs that look alike come from different tables or passages of the source.

Experiments:
5-HT1A receptors [1] = target: T1, 5-HT1A receptors (Rattus norvegicus, UniProt P19327); test: In vitro affinity for the 5-HT1A receptors by displacement of (^3 H)8-OH-DPAT; format: binding; design: rat cerebral cortices are used; from tissue; host or cells: rat cerebral cortex; details: for pKi 5-HT1A: mean of at least 3 experiments, rat cerebral cortex, (^3 H)8-OH-DPAT; for 5-HT1A /D2 Selectivity: ratio of affinity constants (Ki) D2 /(Ki) 5-HT1A; for affinity for the 5-HT1A receptors (in words): in vitro
T1 sequence (P19327 1-422): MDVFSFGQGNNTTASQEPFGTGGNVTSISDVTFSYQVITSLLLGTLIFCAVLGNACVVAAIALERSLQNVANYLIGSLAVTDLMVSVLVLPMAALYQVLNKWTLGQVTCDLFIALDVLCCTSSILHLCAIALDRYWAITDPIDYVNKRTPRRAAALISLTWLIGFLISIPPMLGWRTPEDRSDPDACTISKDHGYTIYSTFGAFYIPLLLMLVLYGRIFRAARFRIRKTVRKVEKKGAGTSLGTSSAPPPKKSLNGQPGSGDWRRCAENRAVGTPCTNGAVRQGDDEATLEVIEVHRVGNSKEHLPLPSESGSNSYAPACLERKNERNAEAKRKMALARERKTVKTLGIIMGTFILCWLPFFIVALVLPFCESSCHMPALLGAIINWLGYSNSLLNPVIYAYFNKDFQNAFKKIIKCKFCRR
Protocol: 1-Measurement of the affinity of the compounds of the invention for the 5-HT1A receptors
The study of binding to the 5-HT1A receptor was carried out as described by Sleight and Peroutka (Naunyn-Schmiedeberg's Arch. Pharmaco. 1991, 343, 106-16). For these experiments, rat cerebral cortices are used. After thawing the brain in 50 mmol Tris-HCl buffer, pH=7.40 at 25° C., the cerebral cortex is removed and homogenized in 20 volumes of buffer maintained at 4° C. The homogenate is centrifuged at 39,000 g for 10 minutes, the centrifugation pellet is suspended in the same volume of buffer and again centrifuged. After suspending again under the same conditions, the homogenate is incubated for 10 minutes at 37° C. and then centrifuged again. The final pellet is suspended in cold 50 mmol Tris-HCl reaction buffer, pH=7.40 at 25° C. containing 10 mmol of pargyline, 4 mmol of CaCl2 and 0.10% of ascorbic acid. The final concentration of tissue in the incubation medium is 10 mg/tube.
Nonspecific binding is defined using 10 mmol of 5-HT. The reaction tubes are incubated at 23° C. for 30 minutes and then their content is rapidly filtered under vacuum on Whatman GF/B filters, the tubes are rinsed twice with 5 ml of 50 mmol Tris-HCl buffer, pH=7.4 at 25° C. The radioactivity collected on the filter is analyzed by liquid scintillation by adding 4 ml of scintillation fluid (Emulsifier Safe, Packard). All the experiments are carried out in triplicate.
(§1) The inhibition constants (Ki) of the products of the invention are estimated from displacement experiments using the nonlinear regression program RADLIG version 4 from EBDA (Equilibrium Binding Data Analysis) (Biosoft, Cambridge, UK, McPherson, 1985). […] The pKi (-logKi) values are given in the form of the mean ±SEM of at least 3 experiments.

5-HT1A receptors [2] = target: T1, 5-HT1A receptors; test: In vivo 5-HT1A agonist activity: lower lip retraction (LLR) in rats after oral administration; design: Sprague Dawley male rats; from tissue; host or cells: whole animal, Sprague Dawley male rats (central nervous system); species or system rat (Sprague Dawley male); details: 1 h
Excerpt: 3-Evaluation of the agonist activity of the 5-HT1A receptors of the compounds of the invention in vivo
Sprague Dawley male rats (ICO: OFAD [IOPS], Iffa Credo, France) weighing 160-180 g on their arrival and 180-200 g at the beginning of the tests are used. The animals are quarantined for 4 to 8 days with free access to standard laboratory food before their use in the experiments. Animals are housed individually in plastic cages on a support, (28 cm×21 cm×18 cm) with a floor having a wire mesh covering (RC Iffa Credo), 24 hours before the tests. Water filtered on 0.22 μm is available ad libitum by means of an automatic dispenser. The quarantine area and the experimentation laboratory are air-conditioned (temperature: 22±1° C.; relative humidity: 55±5%) and illuminated from 07:00 to 19:00. All the rats are treated in accordance with laboratory animal ethics (Guide for the Care and Use of Laboratory Animals, U.S. Department of Agriculture. Public Health Service. National Institutes of Health publication No. 85-23, Revised 1985), and the protocol (No. 15) is carried out in accordance with the recommendations of the local ethics committee on animal research.
The methods used are essentially identical to those described previously (Drug. Dev. Res. 1992, 26, 21-48; Eur. J. Pharmacol. 1995, 281, 219-28).
The behavior of the animal is observed for a period of 10 minutes each, centred on t60 minutes, after administration by the oral route. Four animals are observed individually during the 10 minute period (from t55 to t65); the 4 rats are observed in turn, every 15 seconds, duration of observation 10 seconds per animal. During each of these observation periods, the presence (1) or absence (0) of lower lip retraction (LLR) in the animal is noted. […] This cycle is repeated 10 times over a period of 10 minutes; thus, the frequency of a behavior may vary from 0 to 10 for each observation period. Each day, two animals from each group receive the same dose of the same product.
The products are dissolved in distilled water or suspended in an aqueous solution of Tween 80 (2 drops/10 ml of distilled water). The products are administered in a volume of 10 ml/kg and the doses are expressed in basal weight. The order of administration of the products and of the doses is randomized.

[3] = target: T2, D2 dopaminergic receptors (Rattus norvegicus, UniProt P61169); test: In vitro affinity for the D2 dopaminergic receptors by displacement of (^3 H) YM-09151-2; format: binding
T2 construct: rat striatum is used; from tissue; host or cells: rat striatum
Protocol: 2-Measurement of the affinity of the compounds of the invention for the D2 receptors
The in vitro affinity of the compounds of the invention for the D2 dopaminergic receptors was determined by measuring the displacement of (^3 H) YM-09151-2 (NET-1004 70-87 Ci/mmol). The study of binding to the D2 receptor is carried out as described by Niznik (Naunyn-Schmiedeberg's Arch. Pharmacol. Methods, 1985, 329, 333-38). For these experiments, rat striatum is used. After thawing the brain in 50 mmol Tris-HCl buffer, pH=7.40 at 25° C., the striatum is collected and homogenized in 40 volumes of buffer maintained at 4° C. The homogenate is centrifuged at 20,000 g for 10 minutes, the centrifugation pellet is suspended in the same volume of buffer and again centrifuged. The final pellet is suspended in cold 50 mmol Tris-HCl reaction buffer, pH=7.40 at 25° C. containing 120 mmol of NaCl and 5 mmol of KCl. The final concentration of tissue in the incubation medium is 2 mg/tube. The reaction tubes contain 0.20 ml of [^3 H]YM-09151-2 (0.05 mmol final), 0.20 ml of product to be tested 6-7 concentrations and 1.60 ml of tissue. Nonspecific binding is defined using 1 mmol of (+)-Butaclamol. The reaction tubes are incubated at 23° C. for 60 minutes and then their content is rapidly filtered under vacuum on Whatman GF/B filters, the tubes are rinsed twice with 5 ml of 50 mmol Tris-HCl buffer, pH=7.40 at 25° C. The radioactivity collected on the filter is analyzed by liquid scintillation by adding 4 ml of scintillation fluid (Emulsifier Safe, Packard). All the experiments are carried out in triplicate.
as §1

[4] = read-out: LLR p.o (60 minutes) ED50, oral, observed t55 to t65 minutes
[5] = mean of at least 3 experiments, rat striatum, (^3 H)YM-09151-2
[6] = mean of at least 3 experiments, rat striatum, (^3 H)YM-09151-2, read-out: pKi D2 (converted)
[7] = po, read-out: LLR p.o (60 minutes) ED50

T2 sequence (P61169 whole entry): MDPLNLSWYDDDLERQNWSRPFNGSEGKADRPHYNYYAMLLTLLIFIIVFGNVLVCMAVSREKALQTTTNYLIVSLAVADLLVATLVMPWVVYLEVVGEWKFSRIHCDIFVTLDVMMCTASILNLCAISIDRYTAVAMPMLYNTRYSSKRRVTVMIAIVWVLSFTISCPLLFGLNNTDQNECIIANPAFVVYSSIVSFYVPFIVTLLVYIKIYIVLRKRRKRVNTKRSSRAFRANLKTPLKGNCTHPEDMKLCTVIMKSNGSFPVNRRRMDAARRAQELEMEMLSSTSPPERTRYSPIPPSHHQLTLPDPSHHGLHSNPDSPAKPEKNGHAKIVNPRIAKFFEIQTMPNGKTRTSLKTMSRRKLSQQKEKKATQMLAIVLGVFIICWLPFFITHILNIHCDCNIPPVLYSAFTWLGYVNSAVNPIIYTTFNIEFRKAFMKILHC

Row | Structure (SMILES) | pKi 5-HT1A (5-HT1A receptors [1]) | 5-HT1A /D2 Selectivity (5-HT1A receptors [1]) | ED50 (5-HT1A receptors [2]; [4]) | pKi D2 [3, 5] | Ki [3, 6] | Ki (5-HT1A receptors [1]; read-out: pKi 5-HT1A (converted)) | ED50 (5-HT1A receptors [2]; [7]) | Ki [3] | affinity for the 5-HT1A receptors (in words) (5-HT1A receptors [1])
1 | O=C(c1ccc(F)c(Cl)c1)N1CCC(F)(CNCc2cccc(-c3ccco3)n2)CC1 [I-32, (3-chloro-4-fluorophenyl)-(4-fluoro-4-{[(6-furan-2-yl-pyridin-2-yl-methyl)amino]methyl}-piperidin-1-yl)methanone] | 9.55 | 7942 | 0.31 mg/kg | 5.65 | – | – | – | – | –
2 | CNc1nc(CNCC2(F)CCN(C(=O)c3ccc(F)c(Cl)c3)CC2)ccc1C [I-55, (3-chloro-4-fluoro-phenyl)-(4-fluoro-4-{[(5-methyl-6-methylaminopyridin-2-ylmethyl)amino]-methyl}piperidin-1-yl)methanone] | 10.12 | 16982 | – | – | – | – | 0.08 mg/kg | 1290 nM | –
3 | O=C1CC2(CCCC2)CC(=O)N1CCCCN1CCN(c2ncccn2)CC1 [Buspirone, reference compound] | – | – | 20 mg/kg | – | – | – | – | – | high affinity for the 5-HT1A receptors
4 | CN(C)c1cccc(CNCC2(F)CCN(C(=O)c3ccc(Cl)c(Cl)c3)CC2)n1 [I-14, (3,4-dichlorophenyl)-(4-fluoro-4-{[(6-dimethylaminopyridin-2-yl-methyl)amino]methyl}piperidin-1-yl)-methanone] | 9.61 | 1349 | 0.31 mg/kg | 6.48 | – | – | – | – | –
5 | CCCN(CCC)C1CCc2cccc(O)c2C1 (stereo not shown) [8-OH-DPAT, 7-dipropylamino-5,6,7,8-tetrahydronaphthalen-1-ol, reference compound] | – | – | – | 6.26 | – | – | 5 mg/kg | – | high affinity for the 5-HT1A receptors
6 | CNc1cccc(CNCC2(F)CCN(C(=O)c3ccc(Cl)c(Cl)c3)CC2)n1 [I-11] | 9.67 | 1862 | 0.31 mg/kg | 6.40 | – | – | – | – | –

The next lines start with results.

Row | pKi 5-HT1A (5-HT1A receptors [1]) | 5-HT1A /D2 Selectivity (5-HT1A receptors [1]) | ED50 (5-HT1A receptors [2]; [4]) | pKi D2 [3, 5] | Ki [3, 6] | Ki (5-HT1A receptors [1]; read-out: pKi 5-HT1A (converted)) | Structure (SMILES) | ED50 (5-HT1A receptors [2]; [7]) | Ki [3] | affinity for the 5-HT1A receptors (in words) (5-HT1A receptors [1])
7 | 9.92 | 2291 | 0.31 mg/kg | 6.56 | – | – | CN(C)c1cccc(CNCC2(F)CCN(C(=O)c3ccc(F)c(Cl)c3)CC2)n1 [I-13, (3-chloro-4-fluoro-phenyl)-(4-fluoro-4-{[(6-dimethylaminopyridin-2-yl-methyl)amino]methyl}-piperidin-1-yl)methanone] | – | – | –
8 | 9.24 | > 10000 | 0.31 mg/kg | – | > 10000 nM | – | Cc1ccc(CNCC2(F)CCN(C(=O)c3ccc(Cl)c(Cl)c3)CC2)nc1 [I-65] | – | – | –
9 | 9.34 | 16594 | 0.31 mg/kg | – | 7590 nM | – | O=C(c1ccc(F)c(Cl)c1)N1CCC(F)(CNCc2cccc(-c3cc[nH]n3)n2)CC1 [I-62] | – | – | –
10 | 9.50 | 1906 | 0.08 mg/kg | – | 603 nM | – | Cc1ccc(CNCC2(F)CCN(C(=O)c3ccc(F)c(Cl)c3)CC2)nc1N(C)C [I-61, (3-chloro-4-fluoro-phenyl)-(4-fluoro-4-{[(5-methyl-6-dimethylaminopyridin-2-yl-methyl)amino]-methyl}piperidin-1-yl)methanone] | – | – | –
11 | 9.69 | 5011 | 0.31 mg/kg | – | 1020 nM | – | CNc1cccc(CNCC2(F)CCN(C(=O)c3ccc(F)c(Cl)c3)CC2)n1 [I-59] | – | – | –
12 | 9.73 | 1259 | 0.31 mg/kg | – | 234 nM | – | CCNc1cccc(CNCC2(F)CCN(C(=O)c3ccc(F)c(Cl)c3)CC2)n1 [I-58] | – | – | –
13 | – | 7414 | 0.08 mg/kg | – | 1020 nM | 0.138 nM | O=C(c1ccc(F)c(Cl)c1)N1CCC(F)(CNCc2cccc(N3CCC3)n2)CC1 [I-56] | – | – | –
